In ChEMBL document CHEMBL1201862, “PubChem BioAssay data set” (2004):
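A five-concentration, 48-hour dose response in 96-well plates underlies each endpoint, interpolated linearly between surrounding concentrations. GI50: concentration for 50% inhibition of growth.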 Active and inactive are the calls of the source. Rule as the data show it: active = GI50 up to about 1.1 µM and inactive = higher.

Legend:
Assay in all cases: inhibition of tumour cell growth, NCI panel, 48 h
786-0 = system: 786-0
CAKI-1 = system: CAKI-1
CCRF-CEM = system: CCRF-CEM
COLO 205 = system: COLO 205
HCT-116 = system: HCT-116
HCT-15 = system: HCT-15
Hs-578T = system: Hs-578T
K562 = system: K562
KM12 = system: KM12
MDA-MB-231 = system: MDA-MB-231
NCI/ADR-RES = system: NCI/ADR-RES
OVCAR-4 = system: OVCAR-4
SF-268 = system: SF-268
SK-MEL-5 = system: SK-MEL-5
SNB-19 = system: SNB-19
T47D = system: T47D
U-251 = system: U-251
UO-31 = system: UO-31
HL-60 = system: HL-60
NCI-H226 = system: NCI-H226

SMILES | GI50 (786-0) | GI50 (CAKI-1) | GI50 (CCRF-CEM) | GI50 (COLO 205) | GI50 (HCT-116) | GI50 (HCT-15) | GI50 (Hs-578T) | GI50 (K562) | GI50 (KM12) | GI50 (MDA-MB-231) | GI50 (NCI/ADR-RES) | GI50 (OVCAR-4) | GI50 (SF-268) | GI50 (SK-MEL-5) | GI50 (SNB-19) | GI50 (T47D) | GI50 (U-251) | GI50 (UO-31) | GI50 (HL-60) | GI50 (NCI-H226)
Cc1c[n+]([O-])c2ccccc2[n+]1[O-] | > 100 µM (inactive) | > 100 µM (inactive) | > 100 µM (inactive) | > 100 µM (inactive) | > 100 µM (inactive) | > 100 µM | > 100 µM (inactive) | > 100 µM (inactive) | > 100 µM (inactive) | > 100 µM (inactive) | > 100 µM (inactive) | > 100 µM (inactive) | > 100 µM (inactive) | > 100 µM (inactive) | > 100 µM (inactive) | > 100 µM (inactive) | > 100 µM (inactive) | > 100 µM (inactive) | – | –
Oc1ccc2ccccc2c1CCc1c(O)ccc2ccccc12 | 16.2 µM (inactive) | 7.45 µM (inactive) | 11.9 µM (inactive) | 15.7 µM (inactive) | 12.6 µM (inactive) | 14.4 µM | 16.2 µM (inactive) | 7.55 µM (inactive) | 11.8 µM (inactive) | 14.1 µM (inactive) | 13.6 µM (inactive) | – | 11 µM (inactive) | 12.6 µM (inactive) | 16.9 µM (inactive) | 2.44 µM (inactive) | 13.3 µM (inactive) | – | 22.8 µM (inactive) | 13.7 µM (inactive)
Cc1ccsc1/C=N/Nc1ccccn1 | 68.5 µM (inactive) | > 100 µM (inactive) | 40.5 µM (inactive) | 71.1 µM (inactive) | 43.8 µM (inactive) | 60.1 µM | > 100 µM (inactive) | 43.1 µM (inactive) | 35.6 µM (inactive) | 50 µM (inactive) | 45.3 µM (inactive) | 76.2 µM (inactive) | > 100 µM (inactive) | 25.9 µM (inactive) | > 100 µM (inactive) | 60.7 µM (inactive) | 76.6 µM (inactive) | 71.3 µM (inactive) | – | > 100 µM (inactive)
COc1cccc(OC)c1C1ON=C(c2ccccc2)N1C12CC3CC(CC(C3)C1)C2 (configuration not stated) | 42.1 µM (inactive) | > 100 µM (inactive) | – | > 100 µM (inactive) | 51.2 µM (inactive) | > 100 µM | 57.7 µM (inactive) | > 100 µM (inactive) | > 100 µM (inactive) | > 100 µM (inactive) | > 100 µM (inactive) | – | > 100 µM (inactive) | 27.3 µM (inactive) | 13.1 µM (inactive) | 8.3 µM (inactive) | 30.1 µM (inactive) | > 100 µM (inactive) | 1.87 µM (inactive) | > 100 µM (inactive)
CN1CC(c2ccccc2)=CC2=C1C=CC(=N)/C2=N\N | > 100 µM (inactive) | 5.46 µM (inactive) | > 100 µM (inactive) | – | > 100 µM (inactive) | > 100 µM | 35.3 µM (inactive) | > 100 µM (inactive) | > 100 µM (inactive) | > 100 µM (inactive) | 47.1 µM (inactive) | > 100 µM (inactive) | > 100 µM (inactive) | > 100 µM (inactive) | 86.9 µM (inactive) | > 100 µM (inactive) | > 100 µM (inactive) | > 100 µM (inactive) | – | 6.65 µM (inactive)
Cc1cccc(NC2=NCCO2)c1Cl | > 100 µM (inactive) | – | > 100 µM (inactive) | > 100 µM (inactive) | > 100 µM (inactive) | > 100 µM | > 100 µM (inactive) | > 100 µM (inactive) | > 100 µM (inactive) | > 100 µM (inactive) | > 100 µM (inactive) | > 100 µM (inactive) | > 100 µM (inactive) | > 100 µM (inactive) | > 100 µM (inactive) | > 100 µM (inactive) | > 100 µM (inactive) | > 100 µM (inactive) | > 100 µM (inactive) | > 100 µM (inactive)
O=[N+]([O-])C(=C(Nc1ccccc1)Nc1ccccc1)/C(Cl)=C(\Cl)[N+](=O)[O-] | 3.15 µM (inactive) | 1.61 µM (inactive) | 2.86 µM (inactive) | 2.67 µM (inactive) | 2.73 µM (inactive) | 2.7 µM | 2.74 µM (inactive) | 3.41 µM (inactive) | 3.98 µM (inactive) | 3.88 µM (inactive) | 3.81 µM (inactive) | 6.62 µM (inactive) | 2.98 µM (inactive) | 2.02 µM (inactive) | 12.9 µM (inactive) | 2.02 µM (inactive) | 4.92 µM (inactive) | 3.07 µM (inactive) | – | 12.7 µM (inactive)
ClC(Cl)(Cl)C(N1CCN(c2ccccc2)CC1)N1CCN(c2ccccc2)CC1 | > 100 µM (inactive) | > 100 µM (inactive) | – | > 100 µM (inactive) | > 100 µM (inactive) | > 100 µM | > 100 µM (inactive) | > 100 µM (inactive) | > 100 µM (inactive) | > 100 µM (inactive) | > 100 µM (inactive) | > 100 µM (inactive) | > 100 µM (inactive) | > 100 µM (inactive) | > 100 µM (inactive) | > 100 µM (inactive) | > 100 µM (inactive) | > 100 µM (inactive) | – | > 100 µM (inactive)
